Series [1] in a line: Prodrug conversion in human CEM-SS cell extract assessed as parent ddA formation at 0.00005 M measured at 50 to 150 hrs by HPLC analysis. The format is ADME, cell-based. Conditions: 50 µM, time 50-150 hrs.
The test system of series [2] is Human immunodeficiency virus 1. Kind of series: Anti-HIV activity against HIV-1 infected in human CEM-TK(-) cells assessed as inhibition of viral replication. The following applies: Human immunodeficiency virus 1, CEM-TK(-). The series is classed as functional, organism-based.
The subject of a further series is CEM-SS. Kind of series: Cytotoxicity against human CEM-SS cells assessed as reduction in cell viability. The series is classed as functional.
Series [3] relates to Human immunodeficiency virus 1. Put plainly: Anti-HIV activity against HIV-1 infected in human MT4 cells assessed as inhibition of viral replication. Conditions: Human immunodeficiency virus 1, MT4. The series is classed as functional, organism-based.
Series [4] can be described thus: Cytotoxicity against human MT4 cells assessed as reduction in cell viability. The format is toxicity, cell-based.
The subject of another series is CEM-TK(-). Kind of series: Cytotoxicity against human CEM-TK(-) cells assessed as reduction in cell viability. The format is functional.
Series [5] deals with Human immunodeficiency virus 1. Kind of series: Anti-HIV activity against HIV-1 infected in human CEM-SS cells assessed as inhibition of viral replication. The series is classed as functional, organism-based. Conditions: Human immunodeficiency virus 1, CEM-SS.
Series [6] relates to Human immunodeficiency virus 1. Kind of series: Anti-HIV activity against HIV-1 infected in human PBMC assessed as inhibition of viral replication. The series is classed as functional, organism-based. The following applies: Human immunodeficiency virus 1, PBMC.
The test system of series [7] is Human immunodeficiency virus 1. Kind of series: Anti-HIV activity against HIV-1 infected in human MDM assessed as inhibition of viral replication. The series is classed as functional, organism-based.
The nature of series [8]: Stability of compound in RPMI 1640 culture medium at pH 7.45 assessed as compound half life by HPLC analysis. The series is classed as physicochemical.
Series [9] is described as follows: Stability of compound in human CEM-SS cell extract at pH 7.45 assessed as compound half life by HPLC analysis. The format is ADME, cell-based.
The nature of series [10]: Stability of compound in phosphate buffer at pH 7.4 assessed as compound half life by HPLC analysis. The series is classed as physicochemical.
Series [11] is described as follows: Prodrug conversion in human CEM-SS cell extract assessed as S-(O-pivaloyl-2-oxyethyl)O-2',3'-dideoxyadenosin-5'-yl phos-phorothiolate diester sodium salt metabolite formation at 0.00005 M measured at 5 to 15 hrs by HPLC analysis. The series is classed as ADME, cell-based. The following applies: 50 µM, time 5-15 hrs.
Series [12] is described as follows: Cytotoxicity against human MDM assessed as reduction in cell viability. The series is classed as toxicity, cell-based.
Series [13] is described as follows: Cytotoxicity against human PBMC assessed as reduction in cell viability. The series is classed as toxicity, cell-based.
The nature of series [14]: Stability of compound in inactivated fetal calf serum with RPMI 1640 culture medium assessed as compound half life by HPLC analysis. The format is ADME, cell-free, Bos taurus. Conditions: cattle.
The nature of series [15]: Prodrug conversion in inactivated fetal calf serum with RPMI 1640 culture medium assessed as S-(O-pivaloyl-2-oxyethyl)O-2',3'-dideoxyadenosin-5'-yl phos-phorothiolate diester sodium salt metabolite formation at 0.00005 M measured at 50 to 150 hrs by HPLC analysis. The format is ADME, cell-free, Bos taurus. Conditions: cattle, 50 µM, time 50-150 hrs.
The nature of series [16]: Prodrug conversion in human CEM-SS cell extract assessed as ddAMP formation at 0.00005 M measured at 100 to 500 mins by HPLC analysis. The series is classed as ADME, cell-based. The following applies: 50 µM, time 100-500 min.
Series [17] in a line: Stability of compound in phosphate buffer at pH 7.4 by HPLC analysis. The format is physicochemical.
Series [18] can be described thus: Stability of compound in RPMI 1640 culture medium at pH 7.45 by HPLC analysis. The series is classed as physicochemical. The following applies: buffer.
Series [19] can be described thus: Prodrug conversion in human CEM-SS cell extract assessed as metabolite X formation at 0.00005 M measured at 100 to 500 mins by HPLC analysis. The series is classed as ADME, cell-based. Conditions: 50 µM, time 100-500 min.
Series [20] can be described thus: Prodrug conversion in human CEM-SS cell extract assessed as O-((2S,5R)-5-(6-amino-9H-purin-9-yl)tetrahydrofuran-2-yl)methyl S-2-(pivaloylthio)ethyl phos-phorothioate sodium salt metabolite formation at 0.00005 M measured at 5 to 15 hrs by HPLC analysis. The series is classed as ADME, cell-based. Conditions: 50 µM, time 5-15 hrs.

Each structure is given as a SMILES string.

Take `Nc1ncnc2c1ncn2[C@H]1CC[C@@H](COP(=O)(O)O)O1`: in [1], the Drug metabolism result was “Metabolite_Detected”.
A word on the EC50: it is the midpoint of the concentration-response curve. As usually defined, the CC50 is the concentration that lowers cell viability or growth by half. Turning to `Cc1cn([C@H]2C=C[C@@H](COP(=O)(OCCSC(=O)C(C)(C)C)OCCSC(=O)C(C)(C)C)O2)c(=O)[nH]c1=O`, the EC50 in [2] came out at 0.021 µM; in series [3], 0.26 µM; in series [5], 0.03 µM. The values for the cytotoxic concentration (CC50) (in the series with CEM-SS; in series [4]; with CEM-TK(-)) were greater than 10 µM, greater than 10 µM and 4.6 µM, respectively.
A word on the half-life: it is the time needed for the level to fall by half in the phase considered. As for `CC(C)(C)C(=O)OCCSP(=O)(OC[C@@H]1CC[C@H](n2cnc3c(N)ncnc32)O1)SCCOC(=O)C(C)(C)C`, the EC50 stood at 0.02 µM in [6], 0.00023 µM in series [7], 0.27 µM in series [3] and 0.025 µM in [5]. The half-life was 52.8 h in series [8], 5.3 h in series [9], 69.6 h in series [10] and 38.4 h in series [14]. Also, the Drug metabolism entry in series [11] and in [15] was “Metabolite_Detected” each time. Also, the CC50 in the series on CEM-SS was greater than 10 µM; in series [12], 8.6 µM; in [13] it was greater than 10 µM; in series [4], greater than 1 µM.
For the molecule `CC(C)(C)C(=O)OCCSP(=O)([O-])OC[C@@H]1CC[C@H](n2cnc3c(N)ncnc32)O1.[Na+]`, in [16], the Drug metabolism result was “Metabolite_Detected”. In addition, the Stability result in [17] and in [18] was “Stable” throughout.
For `CC(C)(C)C(=O)SCCOP(=O)([O-])OC[C@@H]1CC[C@H](n2cnc3c(N)ncnc32)O1.[Na+]`, the Drug metabolism entry in series [16] and in series [19] was “Metabolite_Detected” throughout. In addition, the Stability entry in series [17] and in [18] was “Stable” each time.
As to `Nc1ncnc2c1ncn2[C@H]1CC[C@@H](CO)O1`, the EC50 in series [6] came out at 0.24 µM; in series [7], 0.12 µM; in series [3], 7.8 µM; in series [5], 0.49 µM. The half-maximal cytotoxic concentration (CC50) with CEM-SS is greater than 100 µM; in [12], 100 µM; in series [13] it was greater than 100 µM; in series [4], greater than 100 µM.
Turning to `Cc1cn([C@H]2C=C[C@@H](COP(=O)(SCCOC(=O)C(C)(C)C)SCCOC(=O)C(C)(C)C)O2)c(=O)[nH]c1=O`, the results for the concentration for a half-maximal effect (EC50) in series [2], in series [3] and in series [5] were 0.005 µM, 0.099 µM and 0.027 µM, respectively. Also, the CC50 in the series on CEM-SS is greater than 10 µM; in series [4] it was greater than 10 µM; with CEM-TK(-), 8 µM.
With `Cc1cn([C@H]2CC[C@@H](COP(=O)(SCCOC(=O)C(C)(C)C)SCCOC(=O)C(C)(C)C)O2)c(=O)[nH]c1=O`, the EC50 in [2] came to 0.05 µM; in series [3], 0.9 µM; in [5], 0.08 µM. Also, the CC50 (in the series with CEM-SS; in series [4]; in the series on CEM-TK(-)) was greater than 10 µM throughout.
As for `CC(C)(C)C(=O)SCCOP(=O)(OCCSC(=O)C(C)(C)C)OC[C@@H]1C=C[C@H](n2cnc3c(N)ncnc32)O1`, the EC50 in series [6] was 0.047 µM; in series [7], 0.00016 µM; in [3] it was 0.32 µM; in [5] it was 0.018 µM. Further, in [20], the Drug metabolism entry is “Metabolite_Detected”. The half-life was 302 h in [8], 1 h in series [9], 432 h in series [10] and 166 h in series [14]. Further, the CC50 in the series on CEM-SS came to 5.9 µM; in series [12], 3.6 µM; in series [13] it was 1.7 µM; in [4], 9 µM.
For `Cc1cn([C@H]2CC[C@@H](COP(=O)(OCCSC(=O)C(C)(C)C)OCCSC(=O)C(C)(C)C)O2)c(=O)[nH]c1=O`, the concentration for a half-maximal effect (EC50) amounted to 0.05 µM in [2], 2.5 µM in series [3] and 0.22 µM in [5]. Also, the CC50 (with CEM-SS; in series [4]; in the series on CEM-TK(-)) was greater than 10 µM throughout.
Take `Cc1cn([C@H]2C=C[C@@H](CO)O2)c(=O)[nH]c1=O` [STAVUDINE]: the EC50 is greater than 10 µM in [2], 0.28 µM in series [3] and 0.059 µM in series [5]. The CC50 (with CEM-SS; in series [4]; in the series with CEM-TK(-)) was greater than 100 µM throughout.
With `Cc1cn([C@H]2CC[C@@H](CO)O2)c(=O)[nH]c1=O`, the EC50 in series [2] was greater than 100 µM; in series [3], 16 µM; in [5], 0.7 µM. In addition, the cytotoxic concentration (CC50) (in the series on CEM-SS; in series [4]; in the series on CEM-TK(-)) was greater than 100 µM in each case.

The record behind these values is ChEMBL document CHEMBL5120747, “Mononucleoside phosphorodithiolates as mononucleotide prodrugs” (Eur J Med Chem, 2022).
